This note sets out measurements from ChEMBL document CHEMBL4011599, “Coumarin sulfonates: New alkaline phosphatase inhibitors; in vitro and in silico studies” (Eur J Med Chem, 2017).

In assay [1] the target is T1, Alkaline phosphatase, tissue-nonspecific isozyme (Homo sapiens, UniProt P05186).
T1 sequence (P05186 whole entry): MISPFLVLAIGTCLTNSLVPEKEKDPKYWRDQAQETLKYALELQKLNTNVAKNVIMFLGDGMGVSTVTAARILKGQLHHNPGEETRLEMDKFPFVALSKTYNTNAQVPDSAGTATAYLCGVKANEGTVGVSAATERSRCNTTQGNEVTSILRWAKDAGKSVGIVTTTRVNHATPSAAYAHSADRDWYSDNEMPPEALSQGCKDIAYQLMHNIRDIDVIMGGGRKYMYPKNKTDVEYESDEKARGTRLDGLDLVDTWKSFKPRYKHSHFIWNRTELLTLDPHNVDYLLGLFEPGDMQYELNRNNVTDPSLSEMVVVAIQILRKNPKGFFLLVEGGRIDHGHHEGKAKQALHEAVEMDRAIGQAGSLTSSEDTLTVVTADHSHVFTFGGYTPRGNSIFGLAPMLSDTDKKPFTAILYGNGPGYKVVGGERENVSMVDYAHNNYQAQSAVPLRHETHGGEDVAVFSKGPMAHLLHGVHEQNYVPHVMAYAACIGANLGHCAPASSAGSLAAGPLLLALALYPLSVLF
The assay is described as follows: Inhibition of human TNAP using CDP-star as substrate pretreated for 10 mins followed by substrate addition measured after 10 mins by […] method.

Assay [2] deals with T2, Intestinal-type alkaline phosphatase (Homo sapiens, UniProt P09923). Nature of the assay: Inhibition of human IAP using CDP-star as substrate pretreated for 10 mins followed by substrate addition measured after 10 mins by […] method.
Target sequence in this assay (P09923 whole entry): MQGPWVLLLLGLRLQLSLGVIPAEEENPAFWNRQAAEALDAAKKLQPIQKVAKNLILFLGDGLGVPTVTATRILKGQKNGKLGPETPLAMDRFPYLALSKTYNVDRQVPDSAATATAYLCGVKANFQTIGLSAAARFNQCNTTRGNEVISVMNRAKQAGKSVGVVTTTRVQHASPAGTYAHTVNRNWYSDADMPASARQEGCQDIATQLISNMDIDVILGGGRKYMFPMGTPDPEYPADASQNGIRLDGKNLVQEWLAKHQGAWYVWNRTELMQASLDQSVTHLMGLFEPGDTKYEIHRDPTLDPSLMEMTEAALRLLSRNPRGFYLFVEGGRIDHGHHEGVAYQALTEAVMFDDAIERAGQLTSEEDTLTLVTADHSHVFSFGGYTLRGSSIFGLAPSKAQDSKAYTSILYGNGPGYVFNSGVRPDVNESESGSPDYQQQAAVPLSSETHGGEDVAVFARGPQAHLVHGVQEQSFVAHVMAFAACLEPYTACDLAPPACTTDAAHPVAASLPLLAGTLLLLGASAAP
In assay [3] the target is T2, Intestinal-type alkaline phosphatase. Nature of the assay: Potency index, ratio of levamisole IC50 to compound IC50 for human IAP.
Target sequence in this assay (P09923 20-503 limits assumed): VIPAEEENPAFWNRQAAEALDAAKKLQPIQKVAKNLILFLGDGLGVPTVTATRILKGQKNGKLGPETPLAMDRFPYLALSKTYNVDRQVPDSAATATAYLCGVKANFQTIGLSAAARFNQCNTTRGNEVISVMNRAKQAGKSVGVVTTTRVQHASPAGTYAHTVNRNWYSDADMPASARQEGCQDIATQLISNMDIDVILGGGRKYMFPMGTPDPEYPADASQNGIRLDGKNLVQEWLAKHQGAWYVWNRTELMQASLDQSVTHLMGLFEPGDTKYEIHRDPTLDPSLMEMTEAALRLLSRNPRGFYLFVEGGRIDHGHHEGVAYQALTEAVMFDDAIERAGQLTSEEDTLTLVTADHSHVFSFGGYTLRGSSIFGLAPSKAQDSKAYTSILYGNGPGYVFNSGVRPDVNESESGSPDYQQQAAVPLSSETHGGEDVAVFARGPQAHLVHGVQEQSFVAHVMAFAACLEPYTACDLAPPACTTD

For orientation: IC50 means the concentration at which inhibition is half-maximal.

Turning to `Cc1c(C#N)c(=O)oc2cc(OS(=O)(=O)c3ccccc3)ccc12`, the 50% inhibitory concentration (IC50) was 3.53 µM in assay [1] (read-out: IC50) and “Not Active” in assay [2]. With `Cc1c(C#N)c(=O)oc2cc(OS(=O)(=O)c3cccc([N+](=O)[O-])c3)ccc12`, the IC50 in assay [1] (read-out: IC50) turned out to be 2.42 µM; in assay [2] (read-out: IC50), 5.16 µM. On the same counts, the results for `Cc1c(Cl)c(=O)oc2cc(OS(=O)(=O)c3ccccc3)ccc12` are 10.3 µM and 5.52 µM. Take `N[C@@H](Cc1ccccc1)C(=O)O` [PHENYLALANINE]: in assay [1] (read-out: IC50), the concentration for half-maximal inhibition (IC50) stood at 100 µM. With `CCCCS(=O)(=O)Oc1ccc2c(C)c(Cl)c(=O)oc2c1`, the IC50 in assay [1] (read-out: IC50) was found to be 1.64 µM; in assay [2] (read-out: IC50) it was 3.22 µM. For the compound `Cc1cc(=O)oc2cc(OS(=O)(=O)c3ccc(Cl)c([N+](=O)[O-])c3)ccc12`, the figures for the half-inhibitory concentration (IC50) in assay [1] (read-out: IC50) and in assay [2] (read-out: IC50) were 2.31 µM and 2.72 µM, respectively. For `Cc1c(C#N)c(=O)oc2cc(OS(=O)(=O)c3cc(Cl)ccc3Cl)ccc12` the same measures were 2.47 µM and 2.26 µM. Regarding `Cc1c(C#N)c(=O)oc2cc(OS(C)(=O)=O)ccc12`, the IC50 in assay [1] (read-out: IC50) was 1.99 µM; in assay [2], “Not Active”. On to `CCS(=O)(=O)Oc1ccc2c(C)c(C#N)c(=O)oc2c1`, for which the half-inhibitory concentration (IC50) entry in assay [1] is “Not Active”; in assay [2] (read-out: IC50) it was 4.06 µM.

Turning to `CCCCCCCCS(=O)(=O)Oc1ccc2c(C)cc(=O)oc2c1OS(=O)(=O)CCCCCCCC`, the half-inhibitory concentration (IC50) in assay [1] (read-out: IC50) is 0.92 µM; in assay [2] (read-out: IC50) it was 10.3 µM.

Take `CCCCCCCCS(=O)(=O)Oc1ccc2c(C)c(C#N)c(=O)oc2c1`: the IC50 in assay [1] (read-out: IC50) came to 0.92 µM; in assay [2] (read-out: IC50), 2.81 µM. Further, in assay [3], the Ratio IC50 came out at 7. For `c1ccc([C@H]2CN3CCSC3=N2)cc1` [LEVAMISOLE], the half-maximal inhibitory concentration (IC50) in assay [2] (read-out: IC50) worked out at 20.2 µM.
